# Assay results reported in patent EP2140864A2 (H. Lundbeck A/S, priority 2001, dated 2002).
# pKi: −log10 of the molar value. Marks after values point to notes of the source that are not given here.
# Legend:
# [1] = tested on: Male albino Sprague-Dawley rats; experiment: Rat Social Interaction Test (SIT); assay type: in vivo; settings: 5 mg/kg i.p., 1 hour prior to testing
# Protocol: Rats were allowed to acclimate to the animal care facility for 5 days and were housed singly for 5 days prior to testing. Animals were handled for 5 minutes per day. The design and procedure for the Social Interaction Test was carried out as previously described by Kennett, et al. (1997). On the test day, weight matched pairs of rats (± 5%), unfamiliar to each other, were given identical treatments and returned to their home cages. Animals were randomly divided into 5 treatment groups, with 5 pairs per group, and were given one of the following i.p. treatments: Example 92 (10, 30 or 100 mg/kg), vehicle (1 ml/kg) or chlordiazepoxide (5 mg/kg). Dosing was 1 hour prior to testing. Rats were subsequently placed in a white perspex test box or arena (54 x 37 x 26 cm), whose floor was divided up into 24 equal squares, for 15 minutes. An air conditioner was used to generate background noise and to keep the room at approximately 74°F. All sessions were videotaped using a JVC camcorder (model GR-SZ1, Elmwood Park, NJ) with either TDK (HG ultimate brand) or Sony 30 minute videocassettes. All sessions were conducted between 1:00 - 4:30 P.M. Active social interaction, defined as grooming, sniffing, biting, boxing, wrestling, following and crawling over or under, was scored using a stopwatch (Sportsline model no. 226, 1/100 sec. discriminability). The number of episodes of rearing (animal completely raises up its body on its hind limbs), grooming (licking, biting, scratching of body), and face washing (i.e. hands are moved repeatedly over face), and number of squares crossed were scored. Passive social interaction (animals are lying beside or on top of each other) was not scored. All behaviors were assessed later by an observer who was blind as to the treatment of each pair. At the end of each test, the box was thoroughly wiped with moistened paper towels.
# Male albino Sprague-Dawley rats (Taconic Farms, NY) were housed in pairs under a 12 hr light dark cycle (lights on at 0700 hrs.) with free access to food and water.
# Example 92 was dissolved in 100% DMSO (Sigma Chemical Co., St. Louis, MO). Chlordiazepoxide (purchased from Sigma Chemical Co., St. Louis, MO) was dissolved in double distilled water. The vehicle consisted of 50% DMSO (v/v). All drug solutions were made up 10 minutes prior to injection and the solutions were discarded.
# Example 34 was dissolved in 5% lactic acid, v/v. The vehicle consisted of 100% dimethylacetamide (DMA) and this was used to make up all drug solutions. All drug solutions were made up fresh each day and any unused solutions were discarded at the end of the test day. The volume of drug solution administered was 1 ml/kg.
# The social interaction data (time interacting, rearing and squares crossed) were subjected to a randomized, one-way ANOVA and post hoc tests conducted using the Student-Newman-Keuls test. The data were subjected to a test of normality (Shapiro-Wilk test). The data were analyzed using the GBSTAT program, version 6.5 (Dynamics Microsystems, Inc., Silver Spring, MD, 1997). All data are presented as means ± S.E.M.
# [2] = tested on: Male albino Sprague-Dawley rats; experiment: Rat Social Interaction Test (SIT); assay type: in vivo
# human GAL1 receptor = target: T1, human GAL1 receptor (Homo sapiens, UniProt P47211); experiment: Radioligand binding at cloned human GAL1 receptor; settings: indolones, read-out: Ki GalR1
# T1 construct: expressed in transfected cells
# T1 sequence (P47211 1-349): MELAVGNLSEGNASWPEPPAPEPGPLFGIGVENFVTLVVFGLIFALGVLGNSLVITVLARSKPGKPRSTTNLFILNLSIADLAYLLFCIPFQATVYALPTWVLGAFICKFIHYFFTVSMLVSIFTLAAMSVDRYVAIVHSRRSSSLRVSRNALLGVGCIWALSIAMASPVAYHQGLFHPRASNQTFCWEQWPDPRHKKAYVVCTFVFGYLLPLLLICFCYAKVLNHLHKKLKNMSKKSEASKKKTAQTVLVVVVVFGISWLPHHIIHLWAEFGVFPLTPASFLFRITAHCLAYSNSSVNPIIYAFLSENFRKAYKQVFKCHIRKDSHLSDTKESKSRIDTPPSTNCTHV
# Protocol: The binding properties of the pyrimidines of the present invention were evaluated at the cloned human galanin receptors, GAL1, GAL2, and GAL3, using protocols described herein. […]
# (§1) LM(tk-) cells were stably transfected with the human GAL1 or GAL3 receptor. CHO cells were stably transfected with the human GAL2 receptor.
# (§2) cDNAs for the human and rat GAL1, and human and rat GAL3 receptors were transfected with a G-418 resistant gene into the mouse fibroblast LM(tk-) cell line by a calcium phosphate transfection method (Cullen, 1987). Stably transfected cells were selected with G-418. Human and rat GAL2 receptors were similarly transfected into CHO cells.
# (§3) Membranes were harvested from stably transfected LM(tk-) cells. Adherent cells were washed twice in ice-cold phosphate buffered saline (138 mM NaCl, 8.1 mM Na2HPO4, 2.5 mM KCl, 1.2 mM KH2PO4, 0.9 mM CaCl2, 0.5 mM MgCl2, pH 7.4) and lysed by sonication in ice-cold sonication buffer (20 mM Tris-HCl, 5 mM EDTA, pH 7.7). Large particles and debris were cleared by low speed centrifugation (200 x g, 5 min, 4°C). Membranes were collected from the supernatant fraction by centrifugation (32,000 x g, 18 min, 4°C), washed with ice-cold hypotonic buffer, and collected again by centrifugation (32,000 x g, 18 min, 4°C). The final membrane pellet was resuspended by sonication into a small volume of ice-cold binding buffer (-1 ml for every 5 plates: 10 mM NaCl, 20 mM HEPES, 0.22 mM KH2PO4, 1.26 mM CaCl2, 0.81 mM MgSO4, pH 7.4). Protein concentration was measured by the Bradford method (Bradford, 1976) using Bio-Rad Reagent, with bovine serum albumin as a standard. Membranes were held on ice for up to one hour and used fresh, or flash frozen and stored in liquid nitrogen. Membranes were prepared similarly from CHO cells.
# (§4) Galanin Recentors: Binding assays were performed according to the following published methods: human GAL3 (PCT International Publication No. WO 98/15570), human GAL1 (PCT International Publication No. WO 95/2260), human GAL2 (PCT International Publication No. WO 97/26853).
# (§5) Binding data were analyzed using nonlinear regression and statistical techniques available in the GraphPAD Prism package (San Diego, CA). Enzymatic assay data were derived from a standard curve of reference compound data.
# human GAL2 receptor = target: T2, human GAL2 receptor (Homo sapiens, UniProt O43603); experiment: Radioligand binding at cloned human GAL2 receptor; settings: indolones, read-out: Ki GalR2
# T2 construct: expressed in transfected cells
# T2 sequence (O43603 1-387): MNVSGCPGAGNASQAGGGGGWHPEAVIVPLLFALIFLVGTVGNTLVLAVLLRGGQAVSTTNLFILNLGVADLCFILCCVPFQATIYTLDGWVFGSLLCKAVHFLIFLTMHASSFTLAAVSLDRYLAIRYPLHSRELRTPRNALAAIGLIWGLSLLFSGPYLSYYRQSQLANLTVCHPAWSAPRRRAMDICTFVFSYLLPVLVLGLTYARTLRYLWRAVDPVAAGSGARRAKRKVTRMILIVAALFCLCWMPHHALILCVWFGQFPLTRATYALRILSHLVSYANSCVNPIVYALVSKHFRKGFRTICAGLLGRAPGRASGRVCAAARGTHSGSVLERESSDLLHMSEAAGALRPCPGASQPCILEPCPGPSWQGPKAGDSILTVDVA
# Protocol: The binding properties of the pyrimidines of the present invention were evaluated at the cloned human galanin receptors, GAL1, GAL2, and GAL3, using protocols described herein.
# The binding properties of the indolones of the present invention were evaluated at the cloned human galanin receptors, GAL1, GAL2, and GAL3, using protocols described herein.
# as §1, §2, §3, §4, §5
# human GAL3 receptor = target: T3, human GAL3 receptor (Homo sapiens, UniProt O60755); experiment: Radioligand binding at cloned human GAL3 receptor; settings: indolones, cloned human receptor; read-out: Ki GalR3
# T3 construct: expressed in transfected cells
# T3 sequence (O60755 1-368): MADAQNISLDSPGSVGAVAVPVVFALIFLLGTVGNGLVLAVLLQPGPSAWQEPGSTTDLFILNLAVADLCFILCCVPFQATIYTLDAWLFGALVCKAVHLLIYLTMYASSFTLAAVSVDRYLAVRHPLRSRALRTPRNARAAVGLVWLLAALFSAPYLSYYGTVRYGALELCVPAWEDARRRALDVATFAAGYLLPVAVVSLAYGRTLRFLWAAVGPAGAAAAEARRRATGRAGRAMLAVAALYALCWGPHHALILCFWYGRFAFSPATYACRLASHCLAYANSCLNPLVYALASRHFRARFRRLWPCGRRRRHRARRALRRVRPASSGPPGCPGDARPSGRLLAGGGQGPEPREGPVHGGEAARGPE
# How it was run: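 Compound vehicle, as final assay concentration, was 3% DMSO (indolones) or 1% ethanol/0.09% polypuronic acid F-127 (pyrimidines). Binding measured on fresh or frozen membranes of stably transfected LM(tk-) mouse fibroblasts carrying cloned human GAL3, in pH 7.4 HEPES buffer; values derived by nonlinear regression.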
# [3] = 5 mg/kg p.o., one hour before test
Compound,pKi (human GAL1 receptor),pKi (human GAL2 receptor),pKi (human GAL3 receptor),also measured
"CNC1=Nc2ccc(Cl)cc2C(c2ccccc2)=[N+]([O-])C1 [Chlordiazepoxide, chlordiazepoxide, reference compound]",–,–,–,"Grooming bouts [1]: 7.3 ± 1.3; Squares Crossed [1]: 287 ± 28; Rearings ([2]; 5 mg/kg i.p., 1 hour prior to testing): 30 ± 2; Social Interaction ([2]; 5 mg/kg i.p., 1 hour prior to testing, unfamiliar rats, 15 minute test): 188 ± 15^b sec; Grooming bouts [2, 3]: 5.3 ± 0.7; Rearing [2, 3]: 35 ± 2; Squares Crossed [2, 3]: 265 ± 30; Social Interaction ([2]; 5 mg/kg p.o., one hour before test, unfamiliar cage mates in a familiar arena): 122 ± 18^S sec"
"O=C1C(=Nc2ccc(F)cc2)c2ccccc2N1c1ccccc1 [Example 99, 3-[(4-FLUOROPHENYL)IMINO]-1-PHENYL-1,3-DIHYDRO-2H-INDOL-2-ONE]",< 5.00,< 5.00,6.64,–
"O=C1C(=Nc2ccc(Oc3ccccc3)cc2)c2ccccc2N1c1ccccc1 [Example 100, 3-[(4-PHENOXYPHENYL)IMINO]-1-PHENYL-1,3-DIHYDRO-2H-INDOL-2-ONE]",< 5.00,< 5.00,7.05,–
"CCOc1ccc(N=C2C(=O)N(c3ccccc3)c3ccccc32)cc1 [Example 101, 3-[(4-ETHOXYPHENYL)IMINO]-1-PHENYL-1,3-DIHYDRO-2H-INDOL-2-ONE]",< 5.00,< 5.00,6.52,–
"COc1ccc(N=C2C(=O)N(c3ccccc3)c3ccccc32)cc1 [Example 102, 3-[(4-METHOXYPHENYL)IMINO]-1-PHENYL-1,3-DIHYDRO-2H-INDOL-2-ONE]",< 5.00,< 5.00,6.37,–
Cc1cc(C)cc(N=C2C(=O)N(c3ccccc3)c3ccccc32)c1 [Example 104],< 5.00,< 5.00,6.84,–
"C=CCN1C(=O)C(=Nc2ccc(Cl)c(Cl)c2)c2ccccc21 [Example 105, 1-ALLYL-3-[(3,4-DICHLOROPHENYL)IMINO]-1,3-DIHYDRO-2H-INDOL-2-ONE]",< 5.00,< 5.00,7.01,–
"C=CCN1C(=O)C(=Nc2cc(Cl)cc(Cl)c2)c2ccccc21 [Example 106, 1-ALLYL-3-[(3,5-DICHLOROPHENYL)IMINO]-1,3-DIHYDRO-2H-INDOL-2-ONE]",< 5.00,< 5.00,7.21,–
"CC(C)N1C(=O)C(=Nc2ccc(Br)cc2)c2ccccc21 [Example 107, 3-[(4-BROMOPHENYL)IMINO]-1-ISOPROPYL-1,3-DIHYDRO-2H-INDOL-2-ONE]",< 5.00,< 5.00,6.90,–
